Experimental data as given in ChEMBL document CHEMBL5096194, “Development of Alectinib-Based PROTACs as Novel Potent Degraders of Anaplastic Lymphoma Kinase (ALK)” (J Med Chem, 2021).
Active and inactive are the calls of the source. The calls are words filed in the database; no cut-off is given here.

Columns and labels:
NCI-H3122 = experiment: Antiproliferative activity against ALK-positive human NCI-H3122 cells assessed as inhibition of cell proliferation measured after 72 hrs by MTT assay; format: functional, cell-based; details: NCI-H3122, 72 h
KARPAS-299 [1] = experiment: Antiproliferative activity against ALK-positive human KARPAS-299 cells assessed as inhibition of cell proliferation measured after 72 hrs by MTT assay; format: functional, cell-based; details: KARPAS-299, 72 h
[2] = target: T1, Protein cereblon/ALK tyrosine kinase receptor/Echinoderm microtubule-associated protein-like 4 (Homo sapiens) (UniProt Q9UM73+Q9HC35+Q96SW2); experiment: Protac activity at CRBN/EML4-ALK in human NCI-H3122 cells assessed as induction of EML4-ALK fusion protein degradation at 1 uM incubated for 16 hrs by Western blot analysis relative to control; format: cell-based
[3] = target: T1, Protein cereblon/ALK tyrosine kinase receptor/Echinoderm microtubule-associated protein-like 4 (Homo sapiens); experiment: Protac activity at CRBN/EML4-ALK in human NCI-H3122 cells assessed as induction of EML4-ALK fusion protein degradation at 0.1 uM incubated for 16 hrs by Western blot analysis relative to control; format: cell-based
[4] = target: T2, Protein cereblon/ALK tyrosine kinase receptor/Nucleophosmin (Homo sapiens) (UniProt Q9UM73+P06748+Q96SW2); experiment: Protac activity at CRBN/NPM-ALK in human KARPAS-299 cells assessed as induction of NPM-ALK fusion protein degradation at 1 uM incubated for 24 hrs by Western blot analysis relative to control; format: cell-based
KARPAS-299 [5] = experiment: Antitumor activity against human KARPAS-299 cells xenografted in NCG mouse assessed as reduction in tumor volume at 20 mg/kg, po administered once every day for 3 weeks and measured every 3 days; format: functional, organism-based
KARPAS-299 [6] = experiment: Antitumor activity against human KARPAS-299 cells xenografted in NCG mouse assessed as reduction in tumor weight at 20 mg/kg, po administered once every day for 3 weeks and measured every 3 days; format: functional, organism-based
KARPAS-299 [7] = experiment: Antitumor activity against human KARPAS-299 cells xenografted in NCG mouse assessed as tumor growth inhibition at 20 mg/kg, po administered once every day for 3 weeks and measured every 3 days relative to control; format: functional; details: KARPAS-299, 504 h, read-out: TGI
[8] = Toxicity in NCG mouse xenografted with human KARPAS-299 cells assessed as body weight loss at 20 mg/kg, po administered once every day for 3 weeks; format: organism-based; details: in vivo, 504 h
[9] = Toxicity in NCG mouse xenografted with human KARPAS-299 cells assessed as heart damage at 20 mg/kg, po administered once every day for 3 weeks by H & E staining based analysis; format: organism-based; details: in vivo, 504 h
[10] = Toxicity in NCG mouse xenografted with human KARPAS-299 cells assessed as liver damage at 20 mg/kg, po administered once every day for 3 weeks by H and E staining based analysis; format: organism-based; details: in vivo, 504 h
[11] = Toxicity in NCG mouse xenografted with human KARPAS-299 cells assessed as spleen damage at 20 mg/kg, po administered once every day for 3 weeks by H and E staining based analysis; format: organism-based; details: in vivo, 504 h
[12] = Toxicity in NCG mouse xenografted with human KARPAS-299 cells assessed as lung damage at 20 mg/kg, po administered once every day for 3 weeks by H and E staining based analysis; format: organism-based; details: in vivo, 504 h
[13] = Toxicity in NCG mouse xenografted with human KARPAS-299 cells assessed as kidney damage at 20 mg/kg, po administered once every day for 3 weeks by H and E staining based analysis; format: organism-based; details: in vivo, 504 h
BaF3 [14] = experiment: Antiproliferative activity against mouse BaF3 cells assessed as cell viability at 1 uM incubated for 72 hrs by Celltitre-Glo assay relative to control; format: functional; details: read-out: Activity
BaF3 [15] = experiment: Antiproliferative activity against mouse BaF3 cells expressing wild type EML-ALK assessed as cell viability at 1 uM incubated for 72 hrs by Celltitre-Glo assay relative to control; format: functional; details: read-out: Activity
BaF3 [16] = experiment: Antiproliferative activity against crizotinib-resistant mouse BaF3 cells expressing EML-ALK L1152R mutant assessed as cell viability at 1 uM incubated for 72 hrs by Celltitre-Glo assay relative to control; format: functional; details: read-out: Activity
BaF3 [17] = experiment: Antiproliferative activity against crizotinib-resistant mouse BaF3 cells expressing EML-ALK G1202R mutant assessed as cell viability at 1 uM incubated for 72 hrs by Celltitre-Glo assay relative to control; format: functional; details: read-out: Activity
BaF3 [18] = experiment: Antiproliferative activity against crizotinib-resistant mouse BaF3 cells expressing EML-ALK L1196M mutant assessed as cell viability at 1 uM incubated for 72 hrs by Celltitre-Glo assay relative to control; format: functional; details: read-out: Activity
[19] = target: Leukocyte tyrosine kinase receptor (Homo sapiens) (UniProt P29376); experiment: Inhibition of LTK (unknown origin) at 10 nM relative to control
[20] = target: T2, Protein cereblon/ALK tyrosine kinase receptor/Nucleophosmin (Homo sapiens); experiment: Protac activity at CRBN/NPM-ALK in human KARPAS-299 cells assessed as induction of NPM-ALK fusion protein degradation at 0.1 uM incubated for 24 hrs by Western blot analysis relative to control; format: cell-based
[21] = target: T3, ALK tyrosine kinase receptor (Homo sapiens, UniProt Q9UM73); experiment: Inhibition of ALK phosphorylation in human KARPAS-299 cells at 0.01 to 1 uM measured after 24 hrs by Western blot analysis; format: cell-based; details: dose 0.01-1 µM
Target sequence in this assay (Q9UM73 19-1620 limits assumed): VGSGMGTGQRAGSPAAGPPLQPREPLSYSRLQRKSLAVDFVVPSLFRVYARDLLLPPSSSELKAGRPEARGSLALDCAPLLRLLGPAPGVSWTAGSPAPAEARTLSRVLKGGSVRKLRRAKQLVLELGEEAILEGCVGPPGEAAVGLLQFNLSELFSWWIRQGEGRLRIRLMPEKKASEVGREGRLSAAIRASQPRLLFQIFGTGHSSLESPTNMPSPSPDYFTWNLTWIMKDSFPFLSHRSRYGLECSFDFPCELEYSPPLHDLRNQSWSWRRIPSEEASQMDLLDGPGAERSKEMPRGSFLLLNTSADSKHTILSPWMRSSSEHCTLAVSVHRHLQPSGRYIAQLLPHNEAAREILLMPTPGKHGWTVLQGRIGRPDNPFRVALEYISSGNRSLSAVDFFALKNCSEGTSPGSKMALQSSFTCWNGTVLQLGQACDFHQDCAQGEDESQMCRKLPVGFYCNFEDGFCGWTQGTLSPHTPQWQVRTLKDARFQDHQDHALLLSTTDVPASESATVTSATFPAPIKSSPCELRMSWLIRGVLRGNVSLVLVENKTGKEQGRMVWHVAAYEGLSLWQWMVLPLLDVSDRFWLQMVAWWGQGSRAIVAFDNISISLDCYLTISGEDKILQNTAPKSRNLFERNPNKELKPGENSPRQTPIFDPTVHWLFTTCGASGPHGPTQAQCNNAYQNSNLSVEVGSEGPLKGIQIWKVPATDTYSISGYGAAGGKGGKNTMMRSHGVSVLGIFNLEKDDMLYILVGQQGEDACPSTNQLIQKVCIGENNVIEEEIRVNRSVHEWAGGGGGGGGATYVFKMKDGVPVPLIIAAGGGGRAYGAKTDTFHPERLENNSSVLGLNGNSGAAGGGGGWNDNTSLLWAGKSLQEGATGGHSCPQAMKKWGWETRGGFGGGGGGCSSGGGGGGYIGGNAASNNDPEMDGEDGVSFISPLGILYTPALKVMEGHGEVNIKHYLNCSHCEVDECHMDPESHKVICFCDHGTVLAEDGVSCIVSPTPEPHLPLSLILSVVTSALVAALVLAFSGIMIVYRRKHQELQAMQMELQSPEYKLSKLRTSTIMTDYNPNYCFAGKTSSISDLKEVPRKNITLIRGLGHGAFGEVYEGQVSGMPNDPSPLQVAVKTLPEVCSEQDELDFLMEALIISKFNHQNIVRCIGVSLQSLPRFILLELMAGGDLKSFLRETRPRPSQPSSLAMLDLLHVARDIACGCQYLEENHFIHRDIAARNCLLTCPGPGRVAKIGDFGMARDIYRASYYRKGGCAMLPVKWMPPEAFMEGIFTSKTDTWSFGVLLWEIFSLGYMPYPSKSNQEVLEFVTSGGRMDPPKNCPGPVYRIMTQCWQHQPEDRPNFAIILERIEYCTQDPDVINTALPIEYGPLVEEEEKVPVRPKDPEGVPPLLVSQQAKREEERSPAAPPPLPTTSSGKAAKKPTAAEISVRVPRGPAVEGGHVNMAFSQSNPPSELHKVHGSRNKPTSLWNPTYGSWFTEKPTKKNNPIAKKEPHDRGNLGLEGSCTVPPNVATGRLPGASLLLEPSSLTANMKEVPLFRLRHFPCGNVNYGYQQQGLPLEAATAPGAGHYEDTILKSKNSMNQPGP

[22] = target: Signal transducer and activator of transcription 3 (Homo sapiens) (UniProt P40763); experiment: Inhibition of STAT3 phosphorylation in human KARPAS-299 cells as 0.01 to 1 uM measured after 24 hrs by Western blot analysis; format: cell-based; details: dose 0.01-1 µM
[23] = target: T3, ALK tyrosine kinase receptor
Target sequence in this assay (Q9UM73 whole entry): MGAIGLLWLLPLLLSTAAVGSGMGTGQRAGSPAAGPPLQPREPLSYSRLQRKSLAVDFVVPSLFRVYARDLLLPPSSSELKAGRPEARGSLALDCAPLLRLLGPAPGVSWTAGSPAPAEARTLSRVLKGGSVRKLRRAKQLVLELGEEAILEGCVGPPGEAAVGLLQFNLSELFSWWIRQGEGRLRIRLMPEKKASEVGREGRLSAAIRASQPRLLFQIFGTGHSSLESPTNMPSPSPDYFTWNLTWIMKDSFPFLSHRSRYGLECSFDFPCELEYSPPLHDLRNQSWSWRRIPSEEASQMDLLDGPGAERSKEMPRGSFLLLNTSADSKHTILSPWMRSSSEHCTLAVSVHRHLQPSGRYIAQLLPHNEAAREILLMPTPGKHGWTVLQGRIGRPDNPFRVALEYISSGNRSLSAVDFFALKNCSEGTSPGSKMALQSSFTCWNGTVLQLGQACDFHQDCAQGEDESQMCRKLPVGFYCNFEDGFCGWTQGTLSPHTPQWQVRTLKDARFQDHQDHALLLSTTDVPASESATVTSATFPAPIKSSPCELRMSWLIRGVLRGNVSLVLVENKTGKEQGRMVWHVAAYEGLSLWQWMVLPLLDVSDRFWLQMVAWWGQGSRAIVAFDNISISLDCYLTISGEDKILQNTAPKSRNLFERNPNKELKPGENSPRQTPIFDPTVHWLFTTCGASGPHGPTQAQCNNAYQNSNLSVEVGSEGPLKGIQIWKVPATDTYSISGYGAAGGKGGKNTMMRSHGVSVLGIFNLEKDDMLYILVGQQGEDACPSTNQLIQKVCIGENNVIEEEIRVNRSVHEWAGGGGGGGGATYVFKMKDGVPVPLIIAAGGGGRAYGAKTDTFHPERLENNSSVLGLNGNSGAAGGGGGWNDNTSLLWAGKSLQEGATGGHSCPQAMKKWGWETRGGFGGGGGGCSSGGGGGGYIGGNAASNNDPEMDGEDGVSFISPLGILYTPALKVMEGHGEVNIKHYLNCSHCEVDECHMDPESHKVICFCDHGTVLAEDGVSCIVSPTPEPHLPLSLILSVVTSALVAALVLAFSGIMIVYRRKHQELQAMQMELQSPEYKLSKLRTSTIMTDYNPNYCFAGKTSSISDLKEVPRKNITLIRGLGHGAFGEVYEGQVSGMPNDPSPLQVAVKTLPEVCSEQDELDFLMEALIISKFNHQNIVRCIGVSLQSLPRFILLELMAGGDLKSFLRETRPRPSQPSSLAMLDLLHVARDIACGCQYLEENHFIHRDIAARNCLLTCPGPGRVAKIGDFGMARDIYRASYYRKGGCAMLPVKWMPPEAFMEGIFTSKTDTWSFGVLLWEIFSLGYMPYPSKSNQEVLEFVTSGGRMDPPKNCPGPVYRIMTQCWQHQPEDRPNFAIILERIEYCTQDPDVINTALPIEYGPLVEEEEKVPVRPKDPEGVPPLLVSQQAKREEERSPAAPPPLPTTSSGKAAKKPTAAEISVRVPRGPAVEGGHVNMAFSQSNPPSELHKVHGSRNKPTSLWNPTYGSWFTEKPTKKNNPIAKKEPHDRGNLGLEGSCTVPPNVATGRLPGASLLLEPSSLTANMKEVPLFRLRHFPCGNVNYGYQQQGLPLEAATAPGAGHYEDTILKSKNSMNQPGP

KARPAS-299 [24] = experiment: Antiproliferative activity against human KARPAS-299 cells assessed as inhibition of cell growth measured after 72 hrs by MTT assay; format: functional, cell-based; details: KARPAS-299, 72 h

T1 sequence (Q96SW2 whole entry partner, the tested form may be a part): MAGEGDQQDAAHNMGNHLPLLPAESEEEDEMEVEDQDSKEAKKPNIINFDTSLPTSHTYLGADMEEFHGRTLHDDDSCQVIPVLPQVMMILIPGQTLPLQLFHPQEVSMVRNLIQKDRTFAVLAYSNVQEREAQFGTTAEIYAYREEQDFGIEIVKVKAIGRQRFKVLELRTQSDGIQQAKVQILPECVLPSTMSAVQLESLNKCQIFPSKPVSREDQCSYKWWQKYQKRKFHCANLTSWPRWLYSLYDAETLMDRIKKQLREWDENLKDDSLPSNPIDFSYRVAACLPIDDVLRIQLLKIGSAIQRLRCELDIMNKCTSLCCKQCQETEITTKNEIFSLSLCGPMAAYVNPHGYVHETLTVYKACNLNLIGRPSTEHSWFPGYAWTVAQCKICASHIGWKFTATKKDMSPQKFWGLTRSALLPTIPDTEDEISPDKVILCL
T1 sequence (Q9HC35 whole entry partner, the tested form may be a part): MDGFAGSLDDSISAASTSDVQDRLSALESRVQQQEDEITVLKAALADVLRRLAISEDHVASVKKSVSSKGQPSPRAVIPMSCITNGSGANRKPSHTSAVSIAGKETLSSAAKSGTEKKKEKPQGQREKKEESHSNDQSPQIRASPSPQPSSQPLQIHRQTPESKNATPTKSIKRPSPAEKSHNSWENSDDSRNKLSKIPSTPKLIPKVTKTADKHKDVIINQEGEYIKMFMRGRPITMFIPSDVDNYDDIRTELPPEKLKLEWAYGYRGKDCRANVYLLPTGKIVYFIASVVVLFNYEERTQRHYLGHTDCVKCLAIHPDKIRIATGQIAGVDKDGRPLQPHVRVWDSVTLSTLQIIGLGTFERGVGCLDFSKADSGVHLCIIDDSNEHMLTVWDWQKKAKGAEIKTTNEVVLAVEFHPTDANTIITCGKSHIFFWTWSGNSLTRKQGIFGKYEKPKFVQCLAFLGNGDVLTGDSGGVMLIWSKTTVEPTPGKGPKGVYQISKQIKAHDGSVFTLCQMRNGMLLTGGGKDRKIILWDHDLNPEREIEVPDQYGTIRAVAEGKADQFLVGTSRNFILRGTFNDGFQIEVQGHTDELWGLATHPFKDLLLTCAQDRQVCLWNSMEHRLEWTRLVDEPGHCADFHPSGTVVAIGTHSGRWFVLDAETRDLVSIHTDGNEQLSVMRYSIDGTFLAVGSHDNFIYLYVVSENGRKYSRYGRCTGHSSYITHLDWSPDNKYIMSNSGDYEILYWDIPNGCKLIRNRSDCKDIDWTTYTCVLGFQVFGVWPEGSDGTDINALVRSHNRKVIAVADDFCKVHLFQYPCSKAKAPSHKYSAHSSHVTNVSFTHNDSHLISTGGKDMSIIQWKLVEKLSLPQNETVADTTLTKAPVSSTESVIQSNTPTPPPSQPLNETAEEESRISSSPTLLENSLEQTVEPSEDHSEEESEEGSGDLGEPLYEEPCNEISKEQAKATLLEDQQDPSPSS
T1 sequence (Q9UM73 19-1620 limits assumed): as the sequence (Q9UM73 19-1620 limits assumed) above
T2 sequence (P06748 whole entry partner, the tested form may be a part): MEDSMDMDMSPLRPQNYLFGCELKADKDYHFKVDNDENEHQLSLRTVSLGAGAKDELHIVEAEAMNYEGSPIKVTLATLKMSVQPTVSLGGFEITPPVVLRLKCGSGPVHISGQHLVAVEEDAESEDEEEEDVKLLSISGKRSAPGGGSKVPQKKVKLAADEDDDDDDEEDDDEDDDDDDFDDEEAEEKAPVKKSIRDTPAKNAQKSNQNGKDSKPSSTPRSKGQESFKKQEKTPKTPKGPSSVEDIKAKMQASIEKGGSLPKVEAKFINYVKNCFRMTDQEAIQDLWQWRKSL
T2 sequence (Q96SW2 whole entry partner, the tested form may be a part): as the sequence (Q96SW2 whole entry partner, the tested form may be a part) above
T2 sequence (Q9UM73 19-1620 limits assumed): as the sequence (Q9UM73 19-1620 limits assumed) above

Row | IC50 (NCI-H3122) | IC50 (KARPAS-299 [1]) | Activity [2] | Activity [3] | Activity [4] | Activity [20] | inhibition [21] | inhibition [22] | SMILES | viability at 1 µM (BaF3 [15]) | viability at 1 µM (BaF3 [16]) | viability at 1 µM (BaF3 [17]) | viability at 1 µM (BaF3 [18]) | other results
1 | 186 nM | 101 nM | 50.2% | 24.3% | 29.9% |  |  |  | CCc1cc2c(cc1N1CCN(c3cccc4c3C(=O)N(C3CCC(=O)NC3=O)C4=O)CC1)C(C)(C)c1[nH]c3cc(C#N)ccc3c1C2=O (stereo not drawn) |  |  |  |  | 
2 | 118 nM | 119 nM | 77.3% | 24.5% |  |  |  |  | CCc1cc2c(cc1N1CCC(N3CCN(CC(=O)NCCCCCCNc4cccc5c4C(=O)N(C4CCC(=O)NC4=O)C5=O)CC3)CC1)C(C)(C)c1[nH]c3cc(C#N)ccc3c1C2=O (stereo not drawn) |  |  |  |  | 
3 | 45 nM | 47 nM |  |  |  |  |  |  | CCc1cc2c(cc1N1CCC(N3CCOCC3)CC1)C(C)(C)c1[nH]c3cc(C#N)ccc3c1C2=O [ALECTINIB] | 0.1% | 0% | 73.3% | 1.9% | Activity (KARPAS-299 [5]): Active; Activity (KARPAS-299 [6]): Active; inhibition in vivo at 20 mg/kg (KARPAS-299 [7]): 63.8%; Activity [8]: Non-Toxic; Activity [9]: Non-Toxic; Activity [10]: Non-Toxic; Activity [11]: Non-Toxic; Activity [12]: Non-Toxic; Activity [13]: Non-Toxic; viability at 1 µM (BaF3 [14]): 100%; inhibition [19]: > 50%
4 | 96 nM | 119 nM | 87% | 49.9% |  |  |  |  | CCc1cc2c(cc1N1CCC(N3CCN(CC(=O)NCCCCNc4cccc5c4C(=O)N(C4CCC(=O)NC4=O)C5=O)CC3)CC1)C(C)(C)c1[nH]c3cc(C#N)ccc3c1C2=O (stereo not drawn) | 0.1% | 0.1% | 70.9% | 3.6% | 
5 | 121 nM | 106 nM | 81.8% | 74.4% | 57.8% | 68.3% | Active | Active | CCc1cc2c(cc1N1CCN(CC(=O)NCCNc3cccc4c3C(=O)N(C3CCC(=O)NC3=O)C4=O)CC1)C(C)(C)c1[nH]c3cc(C#N)ccc3c1C2=O (stereo not drawn) |  |  |  |  | 
6 | 121 nM | 111 nM | 91% | 47.8% |  |  |  |  | CCc1cc2c(cc1N1CCC(N3CCN(CC(=O)NCCNc4cccc5c4C(=O)N(C4CCC(=O)NC4=O)C5=O)CC3)CC1)C(C)(C)c1[nH]c3cc(C#N)ccc3c1C2=O (stereo not drawn) |  |  |  |  | 
7 | 38 nM | 46 nM |  |  |  |  |  |  | CCc1cc2c(cc1N1CCNCC1)C(C)(C)c1[nH]c3cc(C#N)ccc3c1C2=O | 0.2% | 0% | 0.5% | 0.1% | IC50 [23]: 320 nM; viability at 1 µM (BaF3 [14]): 74%
8 | 272 nM | 275 nM |  |  |  |  |  |  | CCc1cc2c(cc1N1CCN(C(=O)CNc3cccc4c3C(=O)N(C3CCC(=O)N(C)C3=O)C4=O)CC1)C(C)(C)c1[nH]c3cc(C#N)ccc3c1C2=O (stereo not drawn) |  |  |  |  | IC50 [23]: 30600 nM
9 | 269 nM | 245 nM |  |  | 71.6% | 55.1% | Active | Active | CCc1cc2c(cc1N1CCN(C(=O)CCCCCNc3cccc4c3C(=O)N(C3CCC(=O)NC3=O)C4=O)CC1)C(C)(C)c1[nH]c3cc(C#N)ccc3c1C2=O (stereo not drawn) |  |  |  |  | 
10 | 612 nM | 640 nM | 50.6% |  |  |  |  |  | CCc1cc2c(cc1N1CCC(N3CCN(c4cccc5c4C(=O)N(C4CCC(=O)NC4=O)C5=O)CC3)CC1)C(C)(C)c1[nH]c3cc(C#N)ccc3c1C2=O (stereo not drawn) |  |  |  |  | 
11 | 116 nM | 114 nM | 75.8% | 51.3% | 69.8% | 66.5% | Active | Active | CCc1cc2c(cc1N1CCN(CC(=O)NCCCCCCNc3cccc4c3C(=O)N(C3CCC(=O)NC3=O)C4=O)CC1)C(C)(C)c1[nH]c3cc(C#N)ccc3c1C2=O (stereo not drawn) |  |  |  |  | 
12 | 40 nM | 50 nM |  |  |  |  |  |  | CCc1cc2c(cc1N1CCC(N3CCNCC3)CC1)C(C)(C)c1[nH]c3cc(C#N)ccc3c1C2=O | 0.2% | 0.1% | 0.3% | 0.1% | IC50 [23]: 290 nM
13 | 77 nM | 97 nM | 75.7% | 38.3% | 76% | 56.5% | Active | Active | CCc1cc2c(cc1N1CCN(CC(=O)NCCCCNc3cccc4c3C(=O)N(C3CCC(=O)NC3=O)C4=O)CC1)C(C)(C)c1[nH]c3cc(C#N)ccc3c1C2=O (stereo not drawn) | 0.1% | 0% | 76.1% | 4.8% | 
14 |  |  |  |  |  |  |  |  | Nc1cccc2c1C(=O)N(C1CCC(=O)NC1=O)C2=O (stereo not drawn) [POMALIDOMIDE] |  |  |  |  | IC50 (KARPAS-299 [24]): > 10000 nM
15 | 107 nM | 107 nM | 96.9% | 77.3% | 94.3% | 72.8% | Active | Active | CCc1cc2c(cc1N1CCC(N3CCN(C(=O)CNc4cccc5c4C(=O)N(C4CCC(=O)NC4=O)C5=O)CC3)CC1)C(C)(C)c1[nH]c3cc(C#N)ccc3c1C2=O (stereo not drawn) |  |  |  |  | 
16 | 92 nM | 66 nM |  |  | 85.9% | 77.4% | Active | Active | CCc1cc2c(cc1N1CCN(C(=O)CCCNc3cccc4c3C(=O)N(C3CCC(=O)NC3=O)C4=O)CC1)C(C)(C)c1[nH]c3cc(C#N)ccc3c1C2=O (stereo not drawn) |  |  |  |  | 
